Reference: patent US7776833B2, “Use of cyclic bioisosters of purine system derivatives for treating diseases produced by disorders of niterergic and dopaminergic systems” (priority 2003, dated 2010)

Experiments:
Format in all cases: in vivo, Wistar rats
[1] = system: nitrites and nitrates (NOx-); assay: Measurement of nitrates/nitrites (NOx-) in brain regions after the morphine abstinence experiment; details: 3 x 20 mg/kg intramuscularly
Description: (§1) After the above experiments the rat brains were isolated and immediately placed in the ice cold 0.9% solution of sodium chloride. After cooling the following structures were isolated from the brain: cerebral cortex, hippocampus, mesencephalon, striatum, brainstem, hypothalamus and cerebellum. The isolated tissue was homogenized in a Potter S homogenizer for 3 minutes at 1500 rpm in 4-5 volumes of 20 mM HEPES (pH 7.5) at 4° C. The supernatants were centrifuged for 30 minutes at 11000 g at 4° C., and aliquots of the obtained supernatants were taken for determining nitrates and nitrites (NOx-), while the remaining part was mixed with cooled 20 mM of HEPES (pH 7.5), containing 0.5 mM ethylenediamine tetraacetate (EDTA), 1 mM dithiotreitol (DDT), 1 mM phenylmethylsulfonyl fluoride (PMSF), aprotinine and leupeptine at a concentration of 5 μg/ml, this mixture being used for determining nitric oxide synthase (NOS) activity.
To estimate the intensity of metabolism of nitric oxide in rats, quantitative determination of stable metabolites of nitrogen oxide-nitrites and nitrates (NOx-) was performed using a fluorometric method by fluorescence of naphthotriazole, a product of reaction of 2,3- diaminonaphthalene (DAN) and nitrite in an acidic medium (Misko T. R., Schilling R. J., Salvemini D. et al. A fluorometric assay for the measurement of nitrite in biological samples. Anal. Biochem., 1993, V. 214, p.11-16) with modifications (Lei B., Adachi N., Nagaro T., Arai T. Measurement of total nitric oxide metabolite (NO (x) (-)) levels in vivo. Brain. Res. Protoc., 1999, V. 4, p. 415-419).
The supernatants of brain deproteinized at 100° C. were placed in a nitrite recovery system containing 0.125 unit/ml of nitrate reductase, 25 μM NADPH and 25 μM FAD prepared in 20 mM Tris-HCl buffer pH 7.6 and incubated for 30 minutes at 37° C. For oxidation of NADPH a lactate dehydrogenase (LDH)/pyruvate system was used. Then 316.0 μM DAN solution in 0.62 M HCl was added and the mixture was incubated for 10 minutes in dark. For stabilization of fluorescence of the formed naphthotriazole, 280 mM NaOH was added. The fluorescence intensity was measured using spectrofluorometer Hitachi F-3000 at a wavelength of excitation 365 nm and emission 405 nm. To calculate the concentration of NOx- in the brain a standard solution of sodium nitrate was used. The concentration of NOx- was expressed in nmol/mg of protein.
(§2) The content of protein in the samples was determined by the Bradford method (Bradford M. M. A rapid and sensitive method for quantitation of microgram quantities of protein using the principle of protein binding . Anal. Biochem., 1976, V. 72, p. 248-254) using Coumassi dye. The statistical analysis was performed using methods appropriate for respective experiments. The data are expressed as mean±standard error of mean.

[2] = system: nitric oxide synthase (NOS); assay: Nitric oxide synthase activity in brain regions, radiometric [3H]L-citrulline method; details: 3 x 20 mg/kg intramuscularly
Description: as §1
The activity of nitric oxide synthase (NOS) was determined using a radiometric method by the rate of L-citrulline accumulation in a reaction of [^3H] L-arginine oxidation catalyzed by NOS (Bredt M., Snyder S. Nitric oxide mediates glutamate-linked enhancement of cGMP levels in the cerebellum. Proc. Natl. Acad. Sci., USA, 1989, V.86, p.9030-9033). The formation of L-citrulline in this reaction is equivalent to a biosynthesis of nitric oxide.
The reaction was initiated by adding brain supernatant in the reaction medium containing 2 μCi/ml of [3H] L-arginine, 20 mM HEPES (pH 7.4), 0.2 mM CaCl2, 5 μM FAD, 5 μM FMN, 1 mM NADPH, 50 μM of BH4. After 15-60 minutes of incubation at 37° C. a suspension of Dowex 50WX8-400 (Na^+-form), which sorbs unreacted [^3H]L-arginine, but not [^3H] L-citrulline was added to the samples. After the sorption the radioactivity of the samples was determined on a scintillation counter SL-4000 (“Intertechnique”). The activity of Ca^2+-dependent and Ca^2+-independent NOS isoforms was determined by the difference of rates of [^3H]L-citrulline formation in three parallel samples containing 2 mM EDTA (Ca^2+ chelator), 2 mM EDTA+2 mM L-NAME (inhibitor all NOS isoforms) or without inhibitors. The enzyme activity was expressed in rnol [^3H]L-citrulline acumulated per 1 minute on 1 mg of supernatant protein.
as §2

[3] = system: physical dependence from morphine (morphine abstinence); assay: Morphine abstinence syndrome, signs scored in the open field test; details: Morphine − (morphine + compound); compound 3 x 20 mg/kg intramuscularly; one value for the three compounds
Description: Thirty six hours after the last injection selected motor and autonomice parameters which are specific symptoms of abstinence were monitored in the <<open field>> test (an arena with a diameter of 120 cm and wall height of 40 cm).
Med., 2002, V.29, p.1-6.). The observable signs were recorded quantitatively (if it was possible) with further assignment of an index to each sign (depending on the specific feature of the sign) and calculation of the sum of scores. The expression of the abstinence syndrome was presented as a sum of scores. The results were processed using nonparametric statistical analysis based on the Mann-Whitney test.

[4] = Groups Nos. 3-14, compound without morphine, one value for all 12 compounds
[5] = Morphine + compound, one value for the three compounds

Question: How did the “Nitrites, brainstem” value [1, 4] turn out when `O=c1[nH][nH]c(=O)c2nccnc12.[Li]` [Compound 26, lithium salt of pyrazino[2,3-d]-6H-pyridazine-5,8-dione] was run?
Answer: 6.31 ± 0.58 nmol/mg of protein

Question: And the “Nitrites, cerebellum” value [1, 4]?
Answer: 6.66 ± 0.63 nmol/mg of protein

Question: What about the “Nitrites, cerebral cortex” value [1, 4] of the same compound?
Answer: 4.31 ± 0.37 nmol/mg of protein

Question: What about the “Nitrites, hippocampus” value [1, 4] of the same compound?
Answer: 6.47 ± 0.72 nmol/mg of protein

Question: What about the “Nitrites, hypothalamus” value [1, 4] of the same compound?
Answer: 6.77 ± 0.83 nmol/mg of protein

Question: And the “Nitrites, midbrain” value [1, 4]?
Answer: 6.65 ± 0.70 nmol/mg of protein

Question: What about the “Nitrites, striatum” value [1, 4] of the same compound?
Answer: 6.11 ± 0.29 nmol/mg of protein

Question: What about the “Nitrites, brainstem” value [1, 5] of the same compound?
Answer: 7.07 ± 0.85 nmol/mg of protein

Question: What about the “Nitrites, cerebellum” value [1, 5] of the same compound?
Answer: 5.76 ± 0.49 nmol/mg of protein

Question: What about the “Nitrites, cerebral cortex” value [1, 5] of the same compound?
Answer: 4.62 ± 0.27 nmol/mg of protein

Question: What about the “Nitrites, hippocampus” value [1, 5] of the same compound?
Answer: 5.27 ± 0.41 nmol/mg of protein

Question: What about the “Nitrites, hypothalamus” value [1, 5] of the same compound?
Answer: 6.87 ± 0.75 nmol/mg of protein

Question: What about the “Nitrites, midbrain” value [1, 5] of the same compound?
Answer: 5.99 ± 0.58 nmol/mg of protein

Question: What about the “Nitrites, striatum” value [1, 5] of the same compound?
Answer: 3.57 ± 0.42 nmol/mg of protein

Question: And the “Activity of NOS, hippocampus” value [2, 4]?
Answer: 3.09 ± 0.16 nmol/min/mg of protein

Question: What about the “Activity of NOS, hypothalamus” value [2, 4] of the same compound?
Answer: 5.45 ± 0.24 nmol/min/mg of protein

Question: What about the “Activity of NOS, midbrain” value [2, 4] of the same compound?
Answer: 2.60 ± 0.29 nmol/min/mg of protein

Question: And the “Activity of NOS, striatum” value [2, 4]?
Answer: 1.26 ± 0.08 nmol/min/mg of protein

Question: And the “Activity of NOS, hippocampus” value [2, 5]?
Answer: 2.33 ± 0.11 nmol/min/mg of protein

Question: What about the “Activity of NOS, hypothalamus” value [2, 5] of the same compound?
Answer: 5.47 ± 0.32 nmol/min/mg of protein

Question: And the “Activity of NOS, midbrain” value [2, 5]?
Answer: 2.03 ± 0.31 nmol/min/mg of protein

Question: What about the “Activity of NOS, striatum” value [2, 5] of the same compound?
Answer: 1.21 ± 0.10 nmol/min/mg of protein

Question: And the “Authentic differences (ξ-square criterion) in appearance of signs of abstinence: <<Wet dog>> shakes” value [3]?
Answer: 0.7821

Question: What about the “Authentic differences (ξ-square criterion) in appearance of signs of abstinence: Aggression” value [3] of the same compound?
Answer: 0.7921

Question: And the “Authentic differences (ξ-square criterion) in appearance of signs of abstinence: Convulsions” value [3]?
Answer: 0.3456

Question: What about the “Authentic differences (ξ-square criterion) in appearance of signs of abstinence: Diarrhea” value [3] of the same compound?
Answer: 0.0067

Question: What about the “Authentic differences (ξ-square criterion) in appearance of signs of abstinence: Dyspnea” value [3] of the same compound?
Answer: 0.0567

Question: What about the “Authentic differences (ξ-square criterion) in appearance of signs of abstinence: Forelimb jogging” value [3] of the same compound?
Answer: 0.6745

Question: And the “Authentic differences (ξ-square criterion) in appearance of signs of abstinence: Grit with teeth” value [3]?
Answer: 0.2994

Question: What about the “Authentic differences (ξ-square criterion) in appearance of signs of abstinence: Mastication” value [3] of the same compound?
Answer: 0.1975

Question: What about the “Authentic differences (ξ-square criterion) in appearance of signs of abstinence: Piloerection” value [3] of the same compound?
Answer: 0.2567

Question: And the “Authentic differences (ξ-square criterion) in appearance of signs of abstinence: Ptosis” value [3]?
Answer: 0.0105

Question: And the “Authentic differences (ξ-square criterion) in appearance of signs of abstinence: Rhinorrhea” value [3]?
Answer: 0.2131

Question: And the “Authentic differences (ξ-square criterion) in appearance of signs of abstinence: Squeak when touched” value [3]?
Answer: 0.1968

Question: Which “Nitrites, brainstem” value [1, 4] does the source give for `Nc1ccc2c(=O)n([C@@H]3O[C@H](CO)[C@@H](O)[C@H]3O)[nH]c(=O)c2c1.[Na]` [Compound 11, sodium salt of 6-amino-2-(β-D-ribofuranosile)benzo[d]-3H-pyridazine-1,4-dione] here?
Answer: 6.31 ± 0.58 nmol/mg of protein

Question: What about the “Nitrites, cerebellum” value [1, 4] of the same compound?
Answer: 6.66 ± 0.63 nmol/mg of protein

Question: What about the “Nitrites, cerebral cortex” value [1, 4] of the same compound?
Answer: 4.31 ± 0.37 nmol/mg of protein

Question: And the “Nitrites, hippocampus” value [1, 4]?
Answer: 6.47 ± 0.72 nmol/mg of protein

Question: And the “Nitrites, hypothalamus” value [1, 4]?
Answer: 6.77 ± 0.83 nmol/mg of protein

Question: And the “Nitrites, midbrain” value [1, 4]?
Answer: 6.65 ± 0.70 nmol/mg of protein

Question: And the “Nitrites, striatum” value [1, 4]?
Answer: 6.11 ± 0.29 nmol/mg of protein

Question: What about the “Nitrites, brainstem” value [1, 5] of the same compound?
Answer: 6.99 ± 0.82 nmol/mg of protein

Question: What about the “Nitrites, cerebellum” value [1, 5] of the same compound?
Answer: 5.85 ± 0.47 nmol/mg of protein

Question: And the “Nitrites, cerebral cortex” value [1, 5]?
Answer: 4.93 ± 0.39 nmol/mg of protein

Question: And the “Nitrites, hippocampus” value [1, 5]?
Answer: 5.24 ± 0.49 nmol/mg of protein

Question: What about the “Nitrites, hypothalamus” value [1, 5] of the same compound?
Answer: 6.91 ± 0.58 nmol/mg of protein

Question: What about the “Nitrites, midbrain” value [1, 5] of the same compound?
Answer: 5.75 ± 0.39 nmol/mg of protein

Question: And the “Nitrites, striatum” value [1, 5]?
Answer: 3.57 ± 0.42 nmol/mg of protein

Question: And the “Activity of NOS, hippocampus” value [2, 4]?
Answer: 3.09 ± 0.16 nmol/min/mg of protein

Question: And the “Activity of NOS, hypothalamus” value [2, 4]?
Answer: 5.45 ± 0.24 nmol/min/mg of protein

Question: What about the “Activity of NOS, midbrain” value [2, 4] of the same compound?
Answer: 2.60 ± 0.29 nmol/min/mg of protein

Question: What about the “Activity of NOS, striatum” value [2, 4] of the same compound?
Answer: 1.26 ± 0.08 nmol/min/mg of protein

Question: What about the “Activity of NOS, hippocampus” value [2, 5] of the same compound?
Answer: 2.51 ± 0.19 nmol/min/mg of protein

Question: What about the “Activity of NOS, hypothalamus” value [2, 5] of the same compound?
Answer: 5.36 ± 0.33 nmol/min/mg of protein

Question: And the “Activity of NOS, midbrain” value [2, 5]?
Answer: 1.99 ± 0.29 nmol/min/mg of protein

Question: What about the “Activity of NOS, striatum” value [2, 5] of the same compound?
Answer: 1.29 ± 0.09 nmol/min/mg of protein

Question: What about the “Authentic differences (ξ-square criterion) in appearance of signs of abstinence: <<Wet dog>> shakes” value [3] of the same compound?
Answer: 0.7562

Question: And the “Authentic differences (ξ-square criterion) in appearance of signs of abstinence: Aggression” value [3]?
Answer: 0.8456

Question: What about the “Authentic differences (ξ-square criterion) in appearance of signs of abstinence: Convulsions” value [3] of the same compound?
Answer: 0.7546

Question: What about the “Authentic differences (ξ-square criterion) in appearance of signs of abstinence: Diarrhea” value [3] of the same compound?
Answer: 0.0032

Question: What about the “Authentic differences (ξ-square criterion) in appearance of signs of abstinence: Dyspnea” value [3] of the same compound?
Answer: 0.0834

Question: What about the “Authentic differences (ξ-square criterion) in appearance of signs of abstinence: Forelimb jogging” value [3] of the same compound?
Answer: 0.8217

Question: And the “Authentic differences (ξ-square criterion) in appearance of signs of abstinence: Grit with teeth” value [3]?
Answer: 0.8652

Question: What about the “Authentic differences (ξ-square criterion) in appearance of signs of abstinence: Mastication” value [3] of the same compound?
Answer: 0.1032

Question: And the “Authentic differences (ξ-square criterion) in appearance of signs of abstinence: Piloerection” value [3]?
Answer: 0.2567

Question: And the “Authentic differences (ξ-square criterion) in appearance of signs of abstinence: Ptosis” value [3]?
Answer: 0.0320

Question: What about the “Authentic differences (ξ-square criterion) in appearance of signs of abstinence: Rhinorrhea” value [3] of the same compound?
Answer: 0.4032

Question: What about the “Authentic differences (ξ-square criterion) in appearance of signs of abstinence: Squeak when touched” value [3] of the same compound?
Answer: 0.1342
